# Experimental data as given in BindingDB's records for doi:10.1021/acschembio.7b00707 (Istituto Italiano di Tecnologia, 2017).
# Molecular target: Breast cancer type 2 susceptibility protein/DNA repair protein RAD51 homolog 1 (Homo sapiens, UniProt P51587+Q06609)
# Assay: ELISA assay
# From the text: This assay is an efficient tool for directly measuring inhibition of the BRC4−Rad51 interaction, at a molecular level, which is described by Rajendra et al.
# Chain of Breast cancer type 2 susceptibility protein/DNA repair protein RAD51 homolog 1 (P51587 whole entry V2466A): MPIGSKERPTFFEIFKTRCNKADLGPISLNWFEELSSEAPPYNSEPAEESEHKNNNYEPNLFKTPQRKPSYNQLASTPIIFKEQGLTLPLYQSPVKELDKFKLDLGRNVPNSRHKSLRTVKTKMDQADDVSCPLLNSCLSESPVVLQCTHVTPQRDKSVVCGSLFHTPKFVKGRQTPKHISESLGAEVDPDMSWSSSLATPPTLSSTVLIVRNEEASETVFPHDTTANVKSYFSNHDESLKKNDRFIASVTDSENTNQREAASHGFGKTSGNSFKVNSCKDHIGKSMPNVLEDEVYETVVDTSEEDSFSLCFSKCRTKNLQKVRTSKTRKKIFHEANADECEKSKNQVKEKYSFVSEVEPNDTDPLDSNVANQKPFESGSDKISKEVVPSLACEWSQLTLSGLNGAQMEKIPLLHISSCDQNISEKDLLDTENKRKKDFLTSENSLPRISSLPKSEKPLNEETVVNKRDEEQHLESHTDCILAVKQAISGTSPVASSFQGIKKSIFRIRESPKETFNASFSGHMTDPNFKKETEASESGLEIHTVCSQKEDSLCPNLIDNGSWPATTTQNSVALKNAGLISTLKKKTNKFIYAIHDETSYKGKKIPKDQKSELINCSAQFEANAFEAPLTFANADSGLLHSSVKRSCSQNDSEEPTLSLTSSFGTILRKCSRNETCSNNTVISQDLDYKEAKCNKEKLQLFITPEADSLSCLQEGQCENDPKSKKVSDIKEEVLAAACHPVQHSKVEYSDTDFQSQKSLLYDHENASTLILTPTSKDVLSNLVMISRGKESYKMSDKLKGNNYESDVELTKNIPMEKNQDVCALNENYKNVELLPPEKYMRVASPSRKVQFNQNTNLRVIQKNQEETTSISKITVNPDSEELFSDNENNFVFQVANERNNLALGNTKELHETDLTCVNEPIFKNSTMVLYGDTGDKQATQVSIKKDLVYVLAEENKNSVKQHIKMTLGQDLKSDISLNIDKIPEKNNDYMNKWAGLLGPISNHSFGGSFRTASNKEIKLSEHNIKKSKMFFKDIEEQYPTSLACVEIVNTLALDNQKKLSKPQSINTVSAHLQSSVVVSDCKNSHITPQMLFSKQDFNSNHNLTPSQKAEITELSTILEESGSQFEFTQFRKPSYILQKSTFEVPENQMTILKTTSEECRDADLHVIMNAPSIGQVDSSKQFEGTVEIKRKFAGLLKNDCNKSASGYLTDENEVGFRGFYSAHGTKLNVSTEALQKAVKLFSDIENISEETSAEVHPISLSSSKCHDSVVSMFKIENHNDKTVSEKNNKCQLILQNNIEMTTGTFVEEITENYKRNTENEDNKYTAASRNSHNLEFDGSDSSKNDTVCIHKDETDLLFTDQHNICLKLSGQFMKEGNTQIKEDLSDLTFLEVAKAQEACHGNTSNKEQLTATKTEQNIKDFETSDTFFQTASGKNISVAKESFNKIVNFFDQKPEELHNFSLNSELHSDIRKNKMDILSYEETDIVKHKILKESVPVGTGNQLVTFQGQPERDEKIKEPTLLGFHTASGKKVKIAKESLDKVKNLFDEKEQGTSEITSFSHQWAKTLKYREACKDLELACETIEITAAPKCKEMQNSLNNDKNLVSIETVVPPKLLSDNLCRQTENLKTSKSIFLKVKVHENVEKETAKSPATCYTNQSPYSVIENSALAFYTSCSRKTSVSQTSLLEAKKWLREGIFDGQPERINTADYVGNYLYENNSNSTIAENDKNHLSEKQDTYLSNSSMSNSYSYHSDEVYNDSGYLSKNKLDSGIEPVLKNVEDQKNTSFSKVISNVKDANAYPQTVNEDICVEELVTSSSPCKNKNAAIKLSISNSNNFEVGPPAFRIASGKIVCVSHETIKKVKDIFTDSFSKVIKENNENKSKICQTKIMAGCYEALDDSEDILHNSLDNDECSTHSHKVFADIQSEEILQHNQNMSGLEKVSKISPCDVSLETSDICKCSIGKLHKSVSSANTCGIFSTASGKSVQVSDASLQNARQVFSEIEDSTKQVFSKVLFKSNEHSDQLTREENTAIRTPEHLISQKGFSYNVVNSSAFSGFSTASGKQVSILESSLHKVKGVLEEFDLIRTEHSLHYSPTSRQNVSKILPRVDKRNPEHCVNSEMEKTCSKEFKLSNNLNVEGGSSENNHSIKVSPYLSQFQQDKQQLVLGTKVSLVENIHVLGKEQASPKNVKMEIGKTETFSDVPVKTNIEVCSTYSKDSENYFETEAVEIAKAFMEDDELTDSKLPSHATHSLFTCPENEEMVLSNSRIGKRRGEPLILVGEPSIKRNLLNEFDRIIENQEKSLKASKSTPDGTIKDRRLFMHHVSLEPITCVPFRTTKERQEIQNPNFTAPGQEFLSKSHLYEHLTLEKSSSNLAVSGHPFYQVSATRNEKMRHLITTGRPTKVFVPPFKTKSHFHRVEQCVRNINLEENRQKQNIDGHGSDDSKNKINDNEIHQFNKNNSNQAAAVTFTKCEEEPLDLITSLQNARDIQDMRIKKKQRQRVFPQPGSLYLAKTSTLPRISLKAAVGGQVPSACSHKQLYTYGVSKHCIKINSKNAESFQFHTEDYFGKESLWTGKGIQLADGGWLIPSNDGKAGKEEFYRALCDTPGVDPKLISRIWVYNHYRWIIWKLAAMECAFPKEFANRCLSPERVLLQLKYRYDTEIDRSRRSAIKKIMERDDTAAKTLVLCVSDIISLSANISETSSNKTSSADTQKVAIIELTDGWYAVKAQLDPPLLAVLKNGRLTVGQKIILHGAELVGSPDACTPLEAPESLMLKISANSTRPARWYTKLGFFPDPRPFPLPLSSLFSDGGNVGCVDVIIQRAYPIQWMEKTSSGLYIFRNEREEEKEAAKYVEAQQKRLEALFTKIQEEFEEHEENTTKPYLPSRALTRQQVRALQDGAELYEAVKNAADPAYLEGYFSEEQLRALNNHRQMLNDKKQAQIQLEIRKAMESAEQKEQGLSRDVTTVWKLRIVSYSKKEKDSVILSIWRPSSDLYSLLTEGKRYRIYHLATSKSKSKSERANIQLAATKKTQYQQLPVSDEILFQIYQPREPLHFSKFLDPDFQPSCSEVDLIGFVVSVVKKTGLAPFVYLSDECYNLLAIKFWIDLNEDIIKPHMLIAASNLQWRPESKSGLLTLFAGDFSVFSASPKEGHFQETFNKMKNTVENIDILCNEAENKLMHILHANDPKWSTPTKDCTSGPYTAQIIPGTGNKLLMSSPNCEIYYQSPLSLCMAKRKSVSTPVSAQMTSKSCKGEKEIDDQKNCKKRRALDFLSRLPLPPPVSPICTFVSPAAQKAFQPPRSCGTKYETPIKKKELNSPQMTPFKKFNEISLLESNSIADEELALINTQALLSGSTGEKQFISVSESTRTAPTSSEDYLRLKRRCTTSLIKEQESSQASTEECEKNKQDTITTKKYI
# Chain of Breast cancer type 2 susceptibility protein/DNA repair protein RAD51 homolog 1 (Q06609 whole entry): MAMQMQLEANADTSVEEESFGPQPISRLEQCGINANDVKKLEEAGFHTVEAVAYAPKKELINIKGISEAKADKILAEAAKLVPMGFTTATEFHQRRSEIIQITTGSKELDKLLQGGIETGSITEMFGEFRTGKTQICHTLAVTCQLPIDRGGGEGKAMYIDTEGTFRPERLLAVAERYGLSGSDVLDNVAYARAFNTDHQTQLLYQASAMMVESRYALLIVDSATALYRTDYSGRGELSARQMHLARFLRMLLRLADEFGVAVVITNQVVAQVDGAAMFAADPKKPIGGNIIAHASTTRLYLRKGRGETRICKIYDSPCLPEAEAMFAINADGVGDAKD
row,EC50 [µM],SMILES
1,53,O=C(CSc1nnc(Cn2c(=O)sc3ccccc32)n1CCc1ccccc1)NC1CCCC1 [F0665-0303]
2,25,"O=C(CSc1nnc(Cn2c(=O)sc3ccccc32)n1CCCc1ccccc1)NC1CCCC1 [N-cyclopentyl-2-((5-((2-oxobenzo[d]thiazol-3(2H)-yl)methyl)-4-phenpropyl-4H-1,2,4-triazol-3-yl)thio)acetamide]"
